21 compounds from US9593107B2, “Dihydroquinoline-2-one derivatives” (Hoffmann-La Roche Inc., priority 2014, dated 2017) can be followed below.

In one assay the target is T1, human CYP11B2 (Homo sapiens, UniProt P19099).
T1 construct: expressed in transfected cells
T1 sequence (P19099 25-503): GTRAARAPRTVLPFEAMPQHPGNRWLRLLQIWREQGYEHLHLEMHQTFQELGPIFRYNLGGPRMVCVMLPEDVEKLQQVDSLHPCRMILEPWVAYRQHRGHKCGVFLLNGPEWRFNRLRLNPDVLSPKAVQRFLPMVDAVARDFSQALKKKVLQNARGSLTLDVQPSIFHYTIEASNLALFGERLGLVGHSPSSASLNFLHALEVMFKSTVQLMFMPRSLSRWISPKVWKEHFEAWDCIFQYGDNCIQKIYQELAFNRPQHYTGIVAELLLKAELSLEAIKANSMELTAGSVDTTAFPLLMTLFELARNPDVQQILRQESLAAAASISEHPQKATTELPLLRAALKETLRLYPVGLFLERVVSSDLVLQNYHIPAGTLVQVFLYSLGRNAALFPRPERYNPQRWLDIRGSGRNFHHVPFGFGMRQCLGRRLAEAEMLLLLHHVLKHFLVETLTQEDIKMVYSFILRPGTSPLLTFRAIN
The assay can be described thus: G-402 cellular enzyme assay, human CYP11B2 (aldosterone release, HTRF). The class given is cell-based. The conditions noted are these: G-402 cells expressing human CYP11B2; 1 μM Deoxycorticosterone. The source says:
(§1) Herein we identified the use of the G-402 cell line as a host cell to ectopically express (transiently or stably) enzymes of the CYP11 family. Specifically we developed stable G-402 cells expressing ectopically human CYP11B1, human CYP11B2, human CYP11A1, cynmolgus CYP11B1 or cynomolgus CYP11B2 enzyme activity. Importantly the identified cell line G-402 expresses co-factors (adrenodoxin and adrenodoxin reductase) important for the activity of the CYP11 family and no relevant enzyme activity of the CYP11 family (in comparison to H295R cells) was detected in these cells. Therefore the G-402 cell line is uniquely suited as a host cell for the ectopic expression of enzymes from the CYP11 family.
(§2) The expression plasmids contains the ORF for either human/cyno CYP11B1 or CYP11B2 under the control of a suitable promoter (CMV-promoter) and a suitable resistance marker (neomycin). Using standard techniques the expression plasmid is transfected into G-402 cells and these cells are then selected for expressing the given resistance markers. Individual cell-clones are then selected and assessed for displaying the desired enzymatic activity using 11-Deoxycorticosterone (Cyp11B2) or 11-Deoxycortisol (Cyp11B1) as a substrate.
(§3) G-402 cells expressing CYP11 constructs were established as described above and maintained in McCoy's 5a Medium Modified, ATCC Catalog No. 30-2007 containing 10% FCS and 400 μg/ml G418 (Geneticin) at 37° C. under an atmosphere of 5% CO2/95% air.
(§4) Cellular enzyme assays were performed in DMEM/F12 medium containing 2.5% charcoal treated FCS and appropriate concentration of substrate (0.3-10 uM 11-Deoxycorticosterone, 11-Deoxycortisol or Corticosterone). For assaying enzymatic activity, cells were plated onto 96 well plates and incubated for 16 h. An aliquot of the supernatant is then transferred and analyzed for the concentration of the expected product (Aldosterone for CYP11B2; Cortisol for CYP11B1). The concentrations of these steroids can be determined using HTRF assays from CisBio analyzing either Aldosterone or Cortisol.
(§5) Inhibition of the release of produced steroids can be used as a measure of the respective enzyme inhibition by test compounds added during the cellular enzyme assay. The dose dependent inhibition of enzymatic activity by a compound is calculated by means of plotting added inhibitor concentrations (x-axes) vs. measured steroid/product level (y-axes). The inhibition is then calculated by fitting the following 4-parameter sigmoidal function (Morgan-Mercer-Flodin (MMF) model) to the raw data points using the least squares method:
(§6) [formula] wherein, A is the maximum y value, B is the EC50 factor determined using XLFit, C is the minimum y value and D is the slope value.
(§7) EC50 values for compounds claimed herein were tested with the G402-based assay system described. Cyp11B2 enzyme activity was tested in presence of 1 μM Deoxycorticosterone and variable amounts of inhibitors; Cyp11B1 enzyme activity was tested in presence of 1 μM Deoxycortisol and variable amounts of inhibitors.
A general note: In TR-FRET formats the signal depends on donor and acceptor labels being close together.

The target of another assay is T2, human CYP11B1 (Homo sapiens, UniProt P15538).
T2 construct: expressed in transfected cells
T2 sequence (P15538 25-503): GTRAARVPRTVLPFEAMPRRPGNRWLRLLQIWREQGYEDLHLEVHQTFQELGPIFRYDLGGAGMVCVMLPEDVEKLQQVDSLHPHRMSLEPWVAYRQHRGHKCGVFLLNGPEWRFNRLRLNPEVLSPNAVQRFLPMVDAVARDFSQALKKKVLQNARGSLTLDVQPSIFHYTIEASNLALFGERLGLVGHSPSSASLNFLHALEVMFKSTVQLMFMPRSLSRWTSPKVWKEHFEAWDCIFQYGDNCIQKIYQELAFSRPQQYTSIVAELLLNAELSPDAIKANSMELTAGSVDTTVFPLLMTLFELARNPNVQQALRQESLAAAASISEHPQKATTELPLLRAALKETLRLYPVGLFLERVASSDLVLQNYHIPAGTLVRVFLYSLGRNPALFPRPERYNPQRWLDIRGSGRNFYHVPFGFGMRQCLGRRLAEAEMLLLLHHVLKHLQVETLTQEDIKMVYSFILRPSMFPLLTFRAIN
In words: G-402 cellular enzyme assay, human CYP11B1 (cortisol release, HTRF). The conditions noted are these: G-402 cells expressing human CYP11B1; 1 μM Deoxycortisol. It is filed as cell-based.
Source text: as §1, §2, §3, §4, §5, §6, §7

On to `CN1C(=O)CCc2cc(-c3cncc(Cn4c(=O)sc5ccccc54)c3)ccc21` [Example 1, 1-Methyl-6-[5-(2-oxo-benzothiazol-3-ylmethyl)-pyridin-3-yl]-3,4-dihydro-1H-quinolin-2-one], for which the concentration giving a half-maximal response (EC50) came to 1.4 nM at human CYP11B2 and 177 nM on human CYP11B1.

Regarding `CN1C(=O)CCc2cc(-c3cncc(Cn4cc(F)ccc4=O)c3)ccc21` [Example 2, 6-[5-(5-Fluoro-2-oxo-2H-pyridin-1-ylmethyl)-pyridin-3-yl]-1-methyl-3,4-dihydro-1H-quinolin-2-one], the concentration for a half-maximal effect (EC50) came out at 18.5 nM at human CYP11B2 and 935 nM at human CYP11B1.

For the compound `CN1C(=O)CCc2cc(-c3cncc(Cn4ccsc4=O)c3)ccc21` [Example 3, 1-Methyl-6-[5-(2-oxo-thiazol-3-ylmethyl)-pyridin-3-yl]-3,4-dihydro-1H-quinolin-2-one], the EC50 at human CYP11B2 is 3.6 nM; at human CYP11B1, 275 nM.

On to `CN1C(=O)CCc2cc(-c3cncc(Cn4cccc(Cl)c4=O)c3)ccc21` [Example 4, 6-[5-(3-Chloro-2-oxo-2H-pyridin-1-ylmethyl)-pyridin-3-yl]-1-methyl-3,4-dihydro-1H-quinolin-2-one], for which the EC50 stood at 29.3 nM on human CYP11B2 and 1220 nM on human CYP11B1.

Take `CN1C(=O)CCc2cc(-c3cncc(Cn4cc(C(F)(F)F)cc(F)c4=O)c3)ccc21` [Example 5, 6-[5-(3-Fluoro-2-oxo-5-trifluoromethyl-2H-pyridin-1-ylmethyl)-pyridin-3-yl]-1-methyl-3,4-dihydro-1H-quinolin-2-one]: the EC50 on human CYP11B2 stood at 13.2 nM; at human CYP11B1 it was 1080 nM.

Take `CN1C(=O)CCc2cc(-c3cncc(Cn4cccc(F)c4=O)c3)ccc21` [Example 6, 6-[5-(3-Fluoro-2-oxo-2H-pyridin-1-ylmethyl)-pyridin-3-yl]-1-methyl-3,4-dihydro-1H-quinolin-2-one]: the EC50 came out at 32.7 nM on human CYP11B2 and 4070 nM at human CYP11B1.

Take `Cc1cccc(=O)n1Cc1cncc(-c2ccc3c(c2)CCC(=O)N3C)c1` [Example 7, 1-Methyl-6-[5-(6-methyl-2-oxo-2H-pyridin-1-ylmethyl)-pyridin-3-yl]-3,4-dihydro-1H-quinolin-2-one]: the concentration for a half-maximal effect (EC50) came out at 8.8 nM on human CYP11B2 and 820 nM on human CYP11B1.

Regarding `Cc1ccn(Cc2cncc(-c3ccc4c(c3)CCC(=O)N4C)c2)c(=O)c1` [Example 8, 1-Methyl-6-[5-(4-methyl-2-oxo-2H-pyridin-1-ylmethyl)-pyridin-3-yl]-3,4-dihydro-1H-quinolin-2-one], the values for the half-maximal effective concentration (EC50) at human CYP11B2 and at human CYP11B1 were 27 nM and 1050 nM, respectively.

For the compound `CN1C(=O)CCc2cc(-c3cncc(Cn4cc(Cl)ccc4=O)c3)ccc21` [Example 9, 6-[5-(5-Chloro-2-oxo-2H-pyridin-1-ylmethyl)-pyridin-3-yl]-1-methyl-3,4-dihydro-1H-quinolin-2-one], the 50% effective concentration (EC50) at human CYP11B2 worked out at 10.5 nM; at human CYP11B1 it was 516 nM.

Take `CN1C(=O)CCc2cc(-c3cncc(Cn4ccccc4=O)c3)ccc21` [Example 10, 1-Methyl-6-[5-(2-oxo-2H-pyridin-1-ylmethyl)-pyridin-3-yl]-3,4-dihydro-1H-quinolin-2-one]: the values for the EC50 on human CYP11B2 and at human CYP11B1 were 29 nM and 1230 nM, respectively.

As to `CN1C(=O)CCc2cc(-c3cncc(Cn4cccc(C(F)(F)F)c4=O)c3)ccc21` [Example 11, 1-Methyl-6-[5-(2-oxo-3-trifluoromethyl-2H-pyridin-1-ylmethyl)-pyridin-3-yl]-3,4-dihydro-1H-quinolin-2-one], the concentration for a half-maximal effect (EC50) at human CYP11B2 is 18.1 nM; at human CYP11B1, 738 nM.

Consider `Cc1nccc(=O)n1Cc1cncc(-c2ccc3c(c2)CCC(=O)N3C)c1` [Example 12, 1-Methyl-6-[5-(2-methyl-6-oxo-6H-pyrimidin-1-ylmethyl)-pyridin-3-yl]-3,4-dihydro-1H-quinolin-2-one], for which the 50% effective concentration (EC50) worked out at 7.4 nM at human CYP11B2 and 256 nM on human CYP11B1.

Consider `CN1C(=O)CCc2cc(-c3cncc(Cn4cccnc4=O)c3)ccc21` [Example 13, 1-Methyl-6-[5-(2-oxo-2H-pyrimidin-1-ylmethyl)-pyridin-3-yl]-3,4-dihydro-1H-quinolin-2-one], for which the EC50 on human CYP11B2 stood at 89.2 nM; at human CYP11B1, 5570 nM.

As for `CN1C(=O)CCc2cc(-c3cncc(Cn4ccc(C#N)cc4=O)c3)ccc21` [Example 14, 1-[5-(1-Methyl-2-oxo-1,2,3,4-tetrahydro-quinolin-6-yl)-pyridin-3-ylmethyl]-2-oxo-1,2-dihydro-pyridine-4-carbonitrile], the concentration for a half-maximal effect (EC50) on human CYP11B2 came to 8.8 nM; at human CYP11B1, 356 nM.

For the compound `CN1C(=O)CCc2cc(-c3cncc(Cn4cc(C(F)(F)F)ccc4=O)c3)ccc21` [Example 15, 1-Methyl-6-[5-(2-oxo-5-trifluoromethyl-2H-pyridin-1-ylmethyl)-pyridin-3-yl]-3,4-dihydro-1H-quinolin-2-one], the concentration for a half-maximal effect (EC50) turned out to be 19.6 nM at human CYP11B2 and 680 nM at human CYP11B1.

On to `CN1C(=O)CCc2cc(-c3cncc(Cn4cc(C#N)ccc4=O)c3)ccc21` [Example 16, 1-[5-(1-Methyl-2-oxo-1,2,3,4-tetrahydro-quinolin-6-yl)-pyridin-3-ylmethyl]-6-oxo-1,6-dihydro-pyridine-3-carbonitrile], for which the figures for the EC50 at human CYP11B2 and on human CYP11B1 were 67.3 nM and 2420 nM, respectively.

Turning to `CN1C(=O)CCc2cc(-c3cncc(Cn4c(Cl)cccc4=O)c3)ccc21` [Example 17, 6-[5-(6-Chloro-2-oxo-2H-pyridin-1-ylmethyl)-pyridin-3-yl]-1-methyl-3,4-dihydro-1H-quinolin-2-one], the EC50 on human CYP11B2 was 2.2 nM; on human CYP11B1 it was 363 nM.

`CN1C(=O)CCc2cc(-c3cncc(Cn4c(F)cccc4=O)c3)ccc21` [Example 18, 6-[5-(6-Fluoro-2-oxo-2H-pyridin-1-ylmethyl)-pyridin-3-yl]-1-methyl-3,4-dihydro-1H-quinolin-2-one]: the EC50 at human CYP11B2 came out at 4.1 nM; at human CYP11B1, 172 nM.

As to `CN1C(=O)CCc2cc(-c3cncc(Cn4cccc(F)c4=O)c3)c(F)cc21` [Example 19, 7-Fluoro-6-[5-(3-fluoro-2-oxo-2H-pyridin-1-ylmethyl)-pyridin-3-yl]-1-methyl-3,4-dihydro-1H-quinolin-2-one], the results for the EC50 on human CYP11B2 and at human CYP11B1 were 0.5 nM and 23.8 nM, respectively.

As to `Cc1ccn(Cc2cncc(-c3cc4c(cc3F)N(C)C(=O)CC4)c2)c(=O)c1` [Example 20, 7-Fluoro-1-methyl-6-[5-(4-methyl-2-oxo-2H-pyridin-1-ylmethyl)-pyridin-3-yl]-3,4-dihydro-1H-quinolin-2-one], the EC50 at human CYP11B2 was 11.6 nM; on human CYP11B1 it was 506 nM.

Consider `CN1C(=O)CCc2cc(-c3cncc(Cn4cc(Cl)ccc4=O)c3)c(F)cc21` [Example 21, 6-[5-(5-Chloro-2-oxo-2H-pyridin-1-ylmethyl)-pyridin-3-yl]-7-fluoro-1-methyl-3,4-dihydro-1H-quinolin-2-one], for which the EC50 on human CYP11B2 is 15.1 nM; on human CYP11B1, 569 nM.

What is called EC50 is the concentration giving half of the maximal effect. A higher EC50 goes with a less potent agent.
